From patent US20260078111A1, “CARBONIC ANHYDRASE ENZYME INHIBITORS AND METHODS OF USE THEREOF” (RUTGERS, THE STATE UNIVERSITY OF NEW JERSEY, priority 2022, published 2026) come the findings set out here.

For experiment [1], the system named is mast cell development from murine bone marrow cells. The experiment in a line: In vitro mast cell development culture assay (IL-3, flow cytometry). The format is cell-based, mice. Particulars: for Percent Inhibition at 10 μm: in vitro mast cell cultures; for inhibition at 15 µM: Mus musculus, Mast cell, read-out: POI (percent of inhibition based on MC numbers). The protocol: To further test the ability of 4-(3-hydroxy-1-(4-methoxybenzyl)-2-oxoindolin-3-yl)benzenesulfonamide to inhibit mast cell development, an established mast cell culture assay was employed (Henry, E. K., et al., J Exp Med, 2016. 213(9): p. 1663-73). As a positive control for mast cell development, bone marrow cells were isolated from the femur of mice and cultured in the presence of 10 ng/mL of IL-3 and vehicle (1:10, DMSO/RPMI complete media) for seven days and mast cells were identified by flow cytometric analysis as (c-Kit+ FceRIa+ CD49b− cells).
In vitro Mast Cell development: Briefly, 1×10^6 bone marrow-resident progenitor cells were isolated from the femur of mice and cultured in complete media supplemented with 10 ng/mL of rIL-3 for a period of […]. Mast cells were identified by their expression of the surface molecules FcεRIα and c-Kit via flow cytometric analysis. In addition to IL-3, cultures were treated with vehicle or increasing concentrations of Car enzyme inhibitors at the indicated concentrations.

The target in experiment [2] is recombinant human Car1 (Homo sapiens, UniProt P00915). In words: Stopped-flow assay of Car1 enzyme inhibition (IC50). The format is biochemical. The protocol:
Stopped-flow: IC50 values were established using an SX20 stopped-flow spectrometer from […]. In one syringe of the SX20, recombinant human Car1 was kept at a concentration of 9 μM in a sodium phosphate buffer and inhibitors were added to this solution at 0 nM, 10 nM, 20 nM, 80 nM and 100 nM. In a second syringe, a saturated CO2 solution was mixed with 0.2 mM phenol red. This series of dilutions allow for the evaluation of how quickly Car1 can metabolize the CO2 in the absence of an inhibitor and for the determination of whether that process is inhibited as increasing concentrations of compounds are added.

One may read the inhibition as the relative decrease from the control value, in per cent. By IC50 is commonly meant the concentration at which inhibition is half-maximal.

SMILES strings stand for the structures. Where two headings read alike, the source gives them in different places.

Chain of recombinant human Car1 (P00915 whole entry): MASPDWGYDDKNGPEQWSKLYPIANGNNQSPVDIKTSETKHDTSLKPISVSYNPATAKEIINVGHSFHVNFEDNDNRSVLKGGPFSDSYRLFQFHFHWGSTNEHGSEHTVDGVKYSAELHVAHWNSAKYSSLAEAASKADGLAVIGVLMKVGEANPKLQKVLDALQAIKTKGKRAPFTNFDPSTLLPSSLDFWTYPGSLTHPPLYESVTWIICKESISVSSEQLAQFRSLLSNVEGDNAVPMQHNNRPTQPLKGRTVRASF

For the compound `CN1C(=O)C(O)(c2ccc(S(N)(=O)=O)cc2)c2ccccc21` (stereo not drawn), the “Percent Inhibition at 10 μm” value in experiment [1] was found to be 84%.

Take `NS(=O)(=O)c1ccc(C2(O)C(=O)N(Cc3ccc(F)cc3)c3ccccc32)cc1` (stereo not drawn): in experiment [1], the “Percent Inhibition at 10 μm” value is recorded as 98%.

As for `NS(=O)(=O)c1ccc(C2(O)C(=O)Nc3ccccc32)cc1` (stereo not drawn), the “Percent Inhibition at 10 μm” value in experiment [1] turned out to be 94%. Take `CCN1C(=O)C(O)(c2ccc(S(N)(=O)=O)cc2)c2ccccc21` (stereo not drawn): in experiment [1], the “Percent Inhibition at 10 μm” value amounted to 99%. Turning to `CCN1C(=O)C(F)(c2ccc(S(N)(=O)=O)cc2)c2ccccc21` (stereo not drawn), the “Percent Inhibition at 10 μm” value in experiment [1] was determined as 99%. On the same count and under the same terms, to `NS(=O)(=O)c1ccc(C2(F)C(=O)N(Cc3ccc(F)cc3)c3ccccc32)cc1` (stereo not drawn) belongs 98%. In the case of `CN1C(=O)C(F)(c2ccc(S(N)(=O)=O)cc2)c2ccccc21` (stereo not drawn), the “Percent Inhibition at 10 μm” value in experiment [1] is given as 100%. In the case of `COc1ccc(CN2C(=O)C(F)(c3ccc(S(N)(=O)=O)cc3)c3ccccc32)cc1` (stereo not drawn), in experiment [1], the “Percent Inhibition at 10 μm” value turned out to be 99%. As to `NS(=O)(=O)c1ccc(C2(O)C(=O)N(Cc3ccc(OC(F)F)cc3)c3ccccc32)cc1` (stereo not drawn) [NEM-4A, 4-[1-[[4-(difluoromethoxy)phenyl]methyl]-3-hydroxy-2-oxo-indolin-3-yl]benzenesulfonamide], the inhibition at 15 µM in experiment [1] is 82%.

`NS(=O)(=O)c1ccc(C2(O)C(=O)N(Cc3ccc(F)c(F)c3)c3ccccc32)cc1` (stereo not drawn) [NEM-9A, 4-[1-[(3,4-difluorophenyl)methyl]-3-hydroxy-2-oxo-indolin-3-yl]benzenesulfonamide]: in experiment [1] (Table 3, at 15 uM), the inhibition at 15 µM is 18%. For the same compound, the half-maximal inhibitory concentration (IC50) in experiment [2] stood at 51.3 nM. On to `NS(=O)(=O)c1ccc(C2(O)C(=O)N(Cc3cc[n+]([O-])cc3)c3ccccc32)cc1` (stereo not drawn) [NEM-10A, 4-[3-hydroxy-1-[(1-oxidopyridin-1-ium-4-yl)methyl]-2-oxo-indolin-3-yl]benzenesulfonamide], for which the inhibition at 15 µM in experiment [1] (Table 3, at 15 uM) worked out at 11%. Moreover, in experiment [2], the 50% inhibitory concentration (IC50) came to 33.8 nM. As for `NS(=O)(=O)c1ccc(C2(O)C(=O)N(CC3CCOCC3)c3ccccc32)cc1` (stereo not drawn) [NEM-12A, 4-[3-hydroxy-2-oxo-1-(tetrahydropyran-4-ylmethyl)indolin-3-yl]benzenesulfonamide], the inhibition at 15 µM in experiment [1] (Table 3, at 15 uM) came to 6%. In experiment [2], the IC50 is 62.5 nM. For the compound `COc1ccc(N2C(=O)C(O)(c3ccc(S(N)(=O)=O)cc3)c3ccccc32)cc1` (stereo not drawn) [NEM-13A, 4-[3-hydroxy-1-(4-methoxyphenyl)-2-oxo-indolin-3-yl]benzenesulfonamide], the inhibition at 15 µM in experiment [1] is 87%. For the compound `NS(=O)(=O)c1ccc(C2(O)C(=O)N(Cc3ccc(N4CCOCC4)cc3)c3ccccc32)cc1` (stereo not drawn) [NEM-14A, 4-[3-hydroxy-1-[(4-morpholinophenyl)methyl]-2-oxo-indolin-3-yl]benzenesulfonamide], the “inhibition of mast cell numbers (POI) compared to MZ at 126 uM” value in experiment [1] (10 uM) was “comparable inhibition of mast cell numbers with the control, MZ, at 126 uM”; in experiment [1] (15 uM) it was “significantly higher inhibition than MZ at 126 uM”. In experiment [1] (Table 3, at 15 uM), the inhibition at 15 µM was determined as 98%. Moreover, in experiment [2], the IC50 worked out at 34 nM. On to `NS(=O)(=O)c1ccc(C2(O)C(=O)N(Cc3ccc(N4CCCCC4)cc3)c3ccccc32)cc1` (stereo not drawn) [NEM-19A, 4-[3-hydroxy-2-oxo-1-[[4-(1-piperidyl)phenyl]methyl]indolin-3-yl]benzenesulfonamide], for which the inhibition at 15 µM in experiment [1] was 99%. Turning to `NS(=O)(=O)c1ccc(C2(O)C(=O)N(Cc3ccc(N4CCC(F)(F)CC4)cc3)c3ccccc32)cc1` (stereo not drawn) [NEM-20A, 4-[1-[[4-(4,4-difluoro-1-piperidyl)phenyl]methyl]-3-hydroxy-2-oxo-indolin-3-yl]benzenesulfonamide], in experiment [1], the inhibition at 15 µM was determined as 100%.

With `NS(=O)(=O)c1ccc(C2(O)C(=O)N(Cc3ccc(C4CCNCC4)cc3)c3ccccc32)cc1` (stereo not drawn) [NEM-21A, 4-[3-hydroxy-2-oxo-1-[[4-(4-piperidyl)phenyl]methyl]indolin-3-yl]benzenesulfonamide], the inhibition at 15 µM in experiment [1] was 81%. Same read-out and setting: then `NS(=O)(=O)c1ccc(C2(O)C(=O)N(Cc3ccc(N4CCNCC4)cc3)c3ccccc32)cc1` (stereo not drawn) [NEM-22A, 4-[3-hydroxy-2-oxo-1-[(4-piperazin-1-ylphenyl)methyl]indolin-3-yl]benzenesulfonamide], with 53%; and `NS(=O)(=O)c1ccc(C2(O)C(=O)N(Cc3ccc(-n4ccnc4)cc3)c3ccccc32)cc1` (stereo not drawn) [NEM-25A, 4-[3-hydroxy-1-[(4-imidazol-1-ylphenyl)methyl]-2-oxo-indolin-3-yl]benzenesulfonamide], with 87%; and `NS(=O)(=O)c1ccc(C2(O)C(=O)N(Cc3ccc4ncccc4c3)c3ccccc32)cc1` (stereo not drawn) [NEM-26A, 4-[3-hydroxy-2-oxo-1-(6-quinolylmethyl)indolin-3-yl]benzenesulfonamide], with 82%. As for `NS(=O)(=O)c1ccc(C2(O)C(=O)N(c3ccc(Br)cc3)c3ccccc32)cc1` (stereo not drawn) [NEM-27A, 4-[1-(4-bromophenyl)-3-hydroxy-2-oxo-indolin-3-yl]benzenesulfonamide], the inhibition at 15 µM in experiment [1] stood at 94%. On to `CC(C)(C)OC(=O)N1CCC(c2ccc(CN3C(=O)C(O)(c4ccc(S(N)(=O)=O)cc4)c4ccccc43)cc2)CC1` (stereo not drawn) [NEM-30A, tert-butyl 4-[4-[[3-hydroxy-2-oxo-3-(4-sulfamoylphenyl)indolin-1-yl]methyl]phenyl]piperidine-1-carboxylate], for which the inhibition at 15 µM in experiment [1] was 100%.

In the case of `CC(C)(C)OC(=O)N1CCN(c2ccc(CN3C(=O)C(O)(c4ccc(S(N)(=O)=O)cc4)c4ccccc43)cc2)CC1` (stereo not drawn) [NEM-32A, tert-butyl 4-[4-[[3-hydroxy-2-oxo-3-(4-sulfamoylphenyl)indolin-1-yl]methyl]phenyl]piperazine-1-carboxylate], the inhibition at 15 µM in experiment [1] turned out to be 100%. In the case of `NS(=O)(=O)c1ccc(C2(O)C(=O)N(c3cccc4cc(F)ccc34)c3ccccc32)cc1` (stereo not drawn) [NEM-34A, 4-[1-(6-fluoro-1-naphthyl)-3-hydroxy-2-oxo-indolin-3-yl]benzenesulfonamide], in experiment [1], the inhibition at 15 µM was found to be 99%. Take `NS(=O)(=O)c1ccc(C2(O)C(=O)N(c3cccc4cc(Cl)ccc34)c3ccccc32)cc1` (stereo not drawn) [NEM-35A, 4-[1-(6-chloro-1-naphthyl)-3-hydroxy-2-oxo-indolin-3-yl]benzenesulfonamide]: the inhibition at 15 µM in experiment [1] came to 99%. For `NS(=O)(=O)c1ccc(C2(O)C(=O)N(c3cccc4cc(N5CCOCC5)ccc34)c3ccccc32)cc1` (stereo not drawn) [NEM-36A, 4-[3-hydroxy-1-(6-morpholino-1-naphthyl)-2-oxo-indolin-3-yl]benzenesulfonamide], the inhibition at 15 µM in experiment [1] was determined as 91%.

Turning to `NS(=O)(=O)c1ccc(C2(O)C(=O)N(c3cccc4cnccc34)c3ccccc32)cc1` (stereo not drawn) [NEM-38A, 4-[3-hydroxy-1-(5-isoquinolyl)-2-oxo-indolin-3-yl]benzenesulfonamide], the inhibition at 15 µM in experiment [1] is 63%.

For `NS(=O)(=O)c1ccc(C2(O)C(=O)N(Cc3ccc4c(c3)OCO4)c3ccccc32)cc1` (stereo not drawn) [NEM-41A, 4-[1-(1,3-benzodioxol-5-ylmethyl)-3-hydroxy-2-oxo-indolin-3-yl]benzenesulfonamide], in experiment [1], the inhibition at 15 µM was found to be 64%. `NS(=O)(=O)c1ccc(C2(O)C(=O)N(Cc3ccc(-c4ccnc(C(F)(F)F)c4)cc3)c3ccccc32)cc1` (stereo not drawn) [NEM-45A, 4-[3-hydroxy-2-oxo-1-[[4-[2-(trifluoromethyl)-4-pyridyl]phenyl]methyl]indolin-3-yl]benzenesulfonamide]: in experiment [1], the inhibition at 15 µM was determined as 100%. In the case of `COc1ccc(CN2C(=O)C(O)(c3ccc(S(N)(=O)=O)cc3)c3ccccc32)cc1` (stereo not drawn) [drawing 86], the “Percent Inhibition at 10 μm” value in experiment [1] is on record as 91%.
